Test results reported in ChEMBL document CHEMBL3585300, “Inhibition of Cathepsin K: A Novel and Promising Treatment for Osteoporosis” (ACS Med Chem Lett, 2015).

What was measured:
[1] = target: T1, Cathepsin K (Homo sapiens) (UniProt P43235); test: Inhibition of human cathepsin K incubated for 15 mins using Z-Leu-Arg-AMC substrate by spectrofluorometry
T1 sequence (whole entry): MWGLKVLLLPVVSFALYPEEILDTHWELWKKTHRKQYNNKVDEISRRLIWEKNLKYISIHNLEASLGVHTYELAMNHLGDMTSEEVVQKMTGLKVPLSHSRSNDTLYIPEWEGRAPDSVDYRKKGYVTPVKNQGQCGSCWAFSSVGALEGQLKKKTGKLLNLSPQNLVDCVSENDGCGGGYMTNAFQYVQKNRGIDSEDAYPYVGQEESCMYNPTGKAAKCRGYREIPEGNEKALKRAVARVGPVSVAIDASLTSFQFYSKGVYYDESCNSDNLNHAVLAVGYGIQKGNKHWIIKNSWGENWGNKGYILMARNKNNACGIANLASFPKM

[2] = target: T2, Cathepsin F (Homo sapiens) (UniProt Q9UBX1); test: Inhibition of human cathepsin F incubated for 15 mins using Z-Phe-Arg-AMC substrate by spectrofluorometry
T2 sequence (whole entry): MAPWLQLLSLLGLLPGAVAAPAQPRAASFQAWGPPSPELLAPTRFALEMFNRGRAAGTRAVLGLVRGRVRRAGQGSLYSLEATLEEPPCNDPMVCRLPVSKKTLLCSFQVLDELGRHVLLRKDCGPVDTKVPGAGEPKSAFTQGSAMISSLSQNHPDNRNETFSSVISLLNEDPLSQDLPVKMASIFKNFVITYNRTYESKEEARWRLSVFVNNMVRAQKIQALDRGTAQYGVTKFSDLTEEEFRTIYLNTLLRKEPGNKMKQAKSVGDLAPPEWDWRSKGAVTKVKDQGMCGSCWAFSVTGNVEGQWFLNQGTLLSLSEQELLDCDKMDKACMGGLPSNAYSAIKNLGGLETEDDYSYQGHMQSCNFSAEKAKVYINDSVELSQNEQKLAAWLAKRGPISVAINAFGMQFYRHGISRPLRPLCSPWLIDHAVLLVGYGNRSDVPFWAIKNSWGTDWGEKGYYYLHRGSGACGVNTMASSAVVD

IP [1] [nM] | IP [2] [nM] | Structure (SMILES)
0.7 | 851 | CC(C)(C)c1nc([C@@H]2CCCC[C@H]2C(=O)NCC#N)c(-c2ccc(N3CCS(=O)(=O)CC3)cc2)s1
1.7 | 3330 | N#CC1(NC(=O)[C@@H]2CCCC[C@H]2c2nc(-c3cccc(C4CCOCC4)c3)sc2-c2ccc(N3CCS(=O)(=O)CC3)cc2)CC1
5.8 | 1000 | N#CC1(NC(=O)[C@@H]2CCCC[C@H]2c2nc(C3CC(F)(F)C3)sc2-c2ccc(N3CCS(=O)(=O)CC3)cc2)CC1
2.8 | 3140 | C[C@@H](C#N)NC(=O)[C@@H]1C[C@@H](F)CC[C@H]1c1nc(C2(C(F)(F)F)CC2)sc1-c1ccc(N2CCS(=O)(=O)CC2)cc1
